The text below walks through data of patent US20090234017A1, “TREATING SKIN DISORDERS” (priority 2005, published 2009).

The assay has as its system psoriasis. Description: Case report: psoriasis in a patient treated with midodrine for hypotension.

Consider `COc1ccc(OC)c(C(O)CNC(=O)CN)c1` (centres unmarked) [midodrine], for which the “improvement of the patient's psoriasis” value (person with moderate psoriasis, midodrine five mg three times a day for three months) is listed as not below 90%. Further, the “psoriasis after discontinuing use of midodrine” value (same patient, after discontinued use of midodrine) is on record as “psoriasis returned”.
